From patent publication US20050209157A1, “Short bioactive peptides and methods for their use” (priority 2001, published 2005)
≈ marks a conversion by molar mass, not a printed value. Like-named read-outs stand apart in the source and are kept apart here. Non-standard residues stand in square brackets, D forms with d. Residues, ends and D or L forms follow the SMILES beside them. No end group written: not given here.

What was measured:
Candida albicans 105 = format: cell-based; settings: Table 13; in µg/mL
S. aureus (MRSA) = format: cell-based, Staphylococcus aureus; settings: Table 13, strain SAP0017; in µg/mL
S. typhimurium 14028S = format: cell-based, Salmonella typhimurium; settings: Table 12
S. epidermidis C621 = format: cell-based, Staphylococcus epidermidis; settings: Table 13; in µg/mL
[1] = test system: Candida glabrata ATCC15126; assay: Antimicrobial assays II, NCCLS broth microdilution MIC; format: cell-based; settings: in µg/mL
P. aeruginosa H374 = format: cell-based, Pseudomonas aeruginosa; settings: in µg/mL
[2] = test system: Pseudomonas aeruginosa 100609; format: cell-based; settings: Table 9; in µg/mL
E. coli UB1005 = format: cell-based, Escherichia coli; settings: Table 12
[3] = test system: Pseudomonas aeruginosa 105663; format: cell-based; settings: Table 9; in µg/mL
[4] = test system: Pseudomonas aeruginosa H187; format: cell-based; settings: in µg/mL

Molecule | MIC C. albicans 105 (Candida albicans 105) | MIC S. aureus SAP0017 (S. aureus (MRSA)) | MIC S. typhimurium 14028S (S. typhimurium 14028S) [µg/mL] | MIC S. epidermis C621 (S. epidermidis C621) | MIC C. glabrata ATCC15126 ([1]; Table 13) | MIC P. aeruginosa H374 (P. aeruginosa H374; Table 9) | MIC P. aeruginosa H374 (P. aeruginosa H374; Table 12) | MIC P. aeruginosa Tb 100609 [2] | MIC E. coli UB1005 (E. coli UB1005) [µg/mL] | MIC P. aeruginosa Tb 105663 [3] | MIC P. aeruginosa H187 ([4]; Table 9) | MIC P. aeruginosa H187 ([4]; Table 12) | MIC C. glabrata ATCC15126 ([1]; Table 8) | MIC P. aeruginosa H187 ([4]; Table 8)
CC(C)C[C@H](NC(=O)[C@H](C)NC(=O)[C@H](CC(C)C)NC(=O)[C@H](CCCCN)NC(=O)[C@H](C)NC(=O)[C@H](CC(C)C)NC(=O)[C@H](CCCCN)NC(=O)[C@H](CCCCN)NC(=O)[C@H](C)NC(=O)[C@H](CC(C)C)NC(=O)[C@H](CCCCN)NC(=O)[C@H](C)NC(=O)[C@H](CC(C)C)NC(=O)[C@H](CCCCN)NC(=O)[C@H](CCCCN)NC(=O)[C@H](C)NC(=O)[C@@H](N)Cc1ccccc1)C(N)=O [P35 (17)] | 32 | 8 | 4 (≈ 2.16 µM) | 4 | 16 | 8 | 8 | 4 | 2 (≈ 1.08 µM) | 4 | 8 | 8 |  | 
CC(C)C[C@H](NC(=O)[C@H](C)NC(=O)[C@H](CCCCN)NC(=O)[C@H](CCCCN)NC(=O)[C@H](CC(C)C)NC(=O)[C@H](C)NC(=O)[C@H](CCCCN)NC(=O)[C@H](CCCCN)NC(=O)[C@H](CC(C)C)NC(=O)[C@@H](CCCCN)NC(=O)[C@@H](CCCCN)NC(=O)[C@H](CC(C)C)NC(=O)[C@H](C)NC(=O)[C@H](CCCCN)NC(=O)[C@H](CCCCN)NC(=O)[C@H](CC(C)C)NC(=O)[C@H](C)NC(=O)[C@H](CCCCN)NC(=O)[C@H](CC(C)C)NC(=O)[C@H](C)NC(=O)[C@H](CC(C)C)NC(=O)[C@H](C)NC(=O)[C@@H](N)Cc1ccccc1)C(=O)O [P37 (19)] (H-FALALKALKKAL[dK][dK]LKKALKKAL-OH; N-terminus assumed) | 32 | 8 | 8 (≈ 3.15 µM) | 4 | 32 | 8 | 8 | 16 | 4 (≈ 1.58 µM) | 16 | 8 | 8 |  | 
CC(C)C[C@H](NC(=O)[C@H](C)NC(=O)[C@H](CC(C)C)NC(=O)[C@H](CCCCN)NC(=O)[C@H](C)NC(=O)[C@H](CC(C)C)NC(=O)[C@H](CCCCN)NC(=O)[C@H](CCCCN)NC(=O)[C@H](C)NC(=O)[C@H](CC(C)C)NC(=O)[C@H](CCCCN)NC(=O)[C@H](C)NC(=O)[C@H](CC(C)C)NC(=O)[C@H](CCCCN)NC(=O)[C@H](CCCCN)NC(=O)[C@H](C)NC(=O)[C@@H](N)C(C)C)C(N)=O [P50 (32)] | 16 | 4 | 4 (≈ 2.21 µM) | 4 | 16 | 4 | 4 | 4 | 2 (≈ 1.11 µM) | 8 | 4 | 4 |  | 
CC(C)C[C@H](NC(=O)[C@H](C)NC(=O)[C@H](CC(C)C)NC(=O)[C@H](C)NC(=O)[C@H](CC(C)C)NC(=O)[C@H](CCCCN)NC(=O)[C@H](C)NC(=O)[C@H](CC(C)C)NC(=O)[C@H](CCCCN)NC(=O)[C@H](CCCCN)NC(=O)[C@H](C)NC(=O)[C@H](CC(C)C)NC(=O)[C@H](CCCCN)NC(=O)[C@H](C)NC(=O)[C@H](CC(C)C)NC(=O)[C@H](CCCCN)NC(=O)[C@H](CCCCN)NC(=O)[C@H](C)NC(=O)[C@@H](N)C(C)C)C(N)=O [P504 (155)] | 64 | 4 | 4 (≈ 2.01 µM) | 4 | 64 | 8 | 8 | 8 | 4 (≈ 2.01 µM) | 16 | 8 | 8 |  | 
FAKFLAKFLKKAL-NH2 [P111 (75)] | 32 | 8 | 16 | 4 | 32 | 8 | 8 | 16 | 16 | 32 | 8 | 8 |  | 
FAKKLAKKLAKLAL-NH2 [P45 (27)] | 16 | 32 | 32 | 16 | 16 | 8 | 8 | 32 | 4 | 32 | 16 | 16 |  | 
FAKKLAKKLKKLAKKLAKKWKL-OH [P72 (48)] | 32 | 16 | 8 | 4 | 64 | 4 | 4 | 8 | 2 | 8 | 8 | 8 |  | 
FAKKLAKKLL-NH2 [P59 (39)] | 32 | 8 | 8 | 8 | 16 | 8 | 8 | 8 | 8 | 8 | 8 | 8 |  | 
FAKKLAKLALKLAKL-NH2 [P44 (26)] | 8 | 8 | 4 | 4 | 16 | 8 | 8 | 8 | 1 | 16 | 8 | 8 |  | 
FAKLLAKALKKFAL-NH2 [P119 (81)] | 16 | 8 | 8 | 4 | 16 | 8 | 8 | 16 | 4 | 16 | 16 | 16 |  | 
FAKLLAKALKKLL-NH2 [P55 (35)] | 16 | 4 | 4 | 2 | 8 | 8 | 8 | 8 | 4 | 16 | 8 | 8 |  | 
FAKLLAKLAKKLL-NH2 [P43 (25)] | 8 | 4 | 8 | 2 | 16 | 8 | 8 | 8 | 8 | 8 | 8 | 8 |  | 
FAKLLAKLAKKVL-NH2 [P124 (86)] | 16 | 8 | 16 | 4 | 16 | 16 | 16 | 64 | 16 | 64 | 32 | 32 |  | 
FAKLLALALKKAL-NH2 [P97 (165)] | 16 | 8 | 16 | 4 | 16 | 8 | 8 | 16 | 8 | 16 | 16 | 16 |  | 
FAVGLRAIKRALKKLRRGVRKVAKDL-NH2 [P157 (119)] |  |  |  |  |  | 8 |  | 16 |  | 16 | 8 |  | 64 | 8
LPKWKVFKKIEKVGRNIRNGIVKAGPAIAVLGEAKALG-NH2 [P306 (150)] |  |  |  |  |  | 8 |  | 16 |  | 32 | 16 |  | >128 | 16
MPKWKVFKKIEKVGRNIRNGIVKAGPAIAVLGEAKALG-NH2 [P12 (5)] |  |  |  |  |  | 8 |  | 8 |  | 8 | 16 |  | 128 | 16
